Measurements taken from patent publication US11026958B2, “Substituted 6-membered aryl or heteroaryl allosteric modulators of nicotinic acetylcholine receptors” (Merck Sharp & Dohme Corp., priority 2016, dated 2021).
Like-named read-outs stand apart in the source and are kept apart here.

Molecular target: human α7 nAChR (Homo sapiens (Human), UniProt P36544)
Experiment: Automated patch-clamp electrophysiology functional assay (Assay A), IonFlux HT
Assay type: cell-based
Conditions: HEK cell line stably expressing human RIC-3 and human α7, whole-cell population patch, 40 μM acetylcholine
Description: The α7 nAChR positive allosteric modulator (PAM) activity of the present compounds may be tested using assays known in the art. The α7 nAChR PAMs described herein have activities in an automated patch-clamp electrophysiology functional assay as described in the examples. The assay was performed using the IonFlux HT in a whole-cell, population patch configuration. See Golden et al. Assay Drug Dev. Technol. (2011) 9:608-619. The compounds were assessed for their ability to modulate the function of the human α7 nAChR stably expressed in a HEK cell line both in the presence, and in the absence of the natural α7 agonist acetylcholine. By performing a series of such measurements at different concentrations, the effective concentration of the α7 nAChR PAMs (EC50) was determined. See Spencer et al. Assay Drug Dev. Technol. (2012) 10:313-324.
Automated patch-clamp electrophysiology was performed using the IonFlux HT (Fluxion Biosciences Inc., San Francisco, Calif.) in the whole-cell, population patch configuration. Test compounds were assessed for their ability to modulate the function of the α7 nicotinic acetylcholine receptor both in the presence, and in the absence of the natural α7 agonist acetylcholine. A HEK cell line stably expressing both human RIC-3 and human α7 (PrecisION hnAChR α7/RIC-3, Eurofins Pharma, St. Charles, Mo.) was cultured in 175 cm^2 triple-layer tissue culture flasks to no more than 90% confluency in DMEM/F-12 growth media supplemented with 10% heat-inactivated fetal bovine serum, 1% non-essential amino acids, 0.625 μg/mL Puromycin, and 400 μg/mL Geneticin. Immediately prior to assay, cells were detached by first aspirating growth media, rinsing with Dulbecco's phosphate buffered saline, and then adding 10 mL of Accutase (Innovative Cell Technologies, San Diego, Calif.) to the flask and then incubating at 37° C. for 5 minutes. Detached cells were then recovered by the addition of 40 mL of CHO-serum-free media supplemented with 25 mM HEPES, and rocked gently in a 50 mL conical tube for 20 minutes prior to patch-clamp assay. After recovery, cells were pelleted by centrifugation at 1,000 RPM for 1 minute in a compact bench top centrifuge; recovery media was aspirated and cells were resuspended in external recording solution (150 mM NaCl, 5 mM KCl, 2 mM CaCl2, 1 mM MgCl2, 10 mM HEPES, 12 mM dextrose) to a density of 5.0×10^6 cells/mL. The cell suspension was added to the cell inlet wells on an IonFlux HT population patch plate which had previously been rinsed and primed with deionized H2O. Test compounds were serially diluted in DMSO and then resuspended to the final test concentration in external recording solution, with, or without 40 μM acetylcholine added to the external recording solution; test compounds were then transferred to the IonFlux HT population patch plate. Internal recording solution (110 mM TrisPO4, 28 mM TrisBase, 0.1 mM CaCl2, 2 mM MgCl2, 11 mM EGTA, 4 mM MgATP) was added to the internal recording solution inlet wells on the IonFlux HT patch plate previously loaded with cells and test compounds, and the plate loaded into the IonFlux HT instrument. A protocol was executed on the IonFlux HT to trap the cells, break into the cells, and establish the whole-cell recording configuration; cells were voltage-clamped at a holding potential of −60 mV for the duration of the experiment, all experiments were conducted at room temperature, and the IonFlux HT injection pressure was 8 psi for solution applications. Upon establishing the whole-cell configuration, external recording solution was perfused into the recording chambers for 120 seconds and then 40 μM acetylcholine was applied for 1 second and immediately washed off with external recording solution for 60 seconds. The 40 μM acetylcholine-evoked α7 current served as the current response to which subsequent test compound effects, in the presence, or in the absence of 40 μM acetylcholine would be quantified relative to. […]

human α7 nAChR, sequence (P36544 23-502): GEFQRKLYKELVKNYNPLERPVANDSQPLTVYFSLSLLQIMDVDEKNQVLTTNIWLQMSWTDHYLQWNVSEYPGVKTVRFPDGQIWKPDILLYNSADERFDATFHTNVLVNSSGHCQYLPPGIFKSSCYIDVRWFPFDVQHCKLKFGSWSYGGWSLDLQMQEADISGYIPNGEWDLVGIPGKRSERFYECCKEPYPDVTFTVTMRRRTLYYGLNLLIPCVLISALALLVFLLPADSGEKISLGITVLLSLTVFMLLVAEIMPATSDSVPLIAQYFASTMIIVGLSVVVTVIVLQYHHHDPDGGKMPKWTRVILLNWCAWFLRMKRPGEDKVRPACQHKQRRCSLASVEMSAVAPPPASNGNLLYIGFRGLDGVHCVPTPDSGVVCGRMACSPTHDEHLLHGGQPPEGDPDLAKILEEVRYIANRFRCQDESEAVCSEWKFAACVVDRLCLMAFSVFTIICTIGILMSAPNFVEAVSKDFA

Compound | EC50 (read-out: α7 nAChR EC50) | EC50 (read-out: α7 nAChR Potency)
4-(trans-2-{2-[(2,2-Dimethylpropyl)amino]pyrimidin-4-yl}cyclopropyl)benzenesulfonamide [Example D5] | 1800 nM | 500 to 5000 nM
4-(trans-2-{2-[(4-Fluorophenyl)amino]pyrimidin-4-yl}cyclopropyl)benzenesulfonamide [Example D8] | 3800 nM | 500 to 5000 nM
4-(trans-2-{2-[Methyl(phenyl)amino]pyrimidin-4-yl}cyclopropyl)benzenesulfonamide [Example D6] | – | 500 to 5000 nM
4-{trans-2-[2-(Benzylamino)pyrimidin-4-yl]cyclopropyl}benzenesulfonamide [Example D3] | – | 500 to 5000 nM
4-{trans-2-[2-(Cyclopentylamino)pyrimidin-4-yl]cyclopropyl}benzenesulfonamide [Example D2] | 2200 nM | 500 to 5000 nM
4-{trans-2-[2-(Pyrrolidin-1-yl)pyrimidin-4-yl]cyclopropyl}benzenesulfonamide [Example D7] | 900 nM | 500 to 5000 nM
CC(C)c1ccc(C2CC2c2ccc(S(N)(=O)=O)cc2)nc1 (racemic) [Example A6, 4-{trans-2-[5-(Propan-2-yl)pyridin-2-yl]cyclopropyl}benzenesulfonamide] | 700 nM | 500 to 5000 nM
CC(C)c1cccnc1C1CC1c1ccc(S(N)(=O)=O)cc1 (racemic) [Example A7, 4-{trans-2-[3-(Propan-2-yl)pyridin-2-yl]cyclopropyl}benzenesulfonamide] | 2400 nM | 500 to 5000 nM
NS(=O)(=O)c1ccc([C@@H]2C[C@H]2c2cccc(-n3cccn3)n2)cc1 (racemic) [Example A8, 4-{trans-2-[6-(1H-Pyrazol-1-yl)pyridin-2-yl]cyclopropyl}benzenesulfonamide] | 3300 nM | 500 to 5000 nM
NS(=O)(=O)c1ccc([C@@H]2C[C@H]2c2cccc(C3CCOCC3)n2)cc1 (racemic) [Example A9, 4-{trans-2-[6-(Tetrahydro-2H-pyran-4-yl)pyridin-2-yl]cyclopropyl}benzenesulfonamide] | 5600 nM | 5000 to 50000 nM
CC(C)c1cccc(C2CC2c2ccc(S(N)(=O)=O)cc2)n1 (racemic) [Example A10, 4-{trans-2-[6-(Propan-2-yl)pyridin-2-yl]cyclopropyl}benzenesulfonamide] | – | 500 to 5000 nM
CC(C)c1ccnc(C2CC2c2ccc(S(N)(=O)=O)cc2)c1 (racemic) [Example A11, 4-{trans-2-[4-(Propan-2-yl)pyridin-2-yl]cyclopropyl}benzenesulfonamide] | 460 nM | 100 to 500 nM
NS(=O)(=O)c1ccc([C@@H]2C[C@H]2c2cccc(C3CCCC3)n2)cc1 (racemic) [Example A12, 4-[trans-2-(6-Cyclopentylpyridin-2-yl)cyclopropyl]benzenesulfonamide] | – | 100 to 500 nM
NS(=O)(=O)c1ccc([C@@H]2C[C@H]2c2ccc(C3CCCC3)cn2)cc1 (racemic) [Example A13, 4-[trans-2-(5-Cyclopentylpyridin-2-yl)cyclopropyl]benzenesulfonamide] | 1500 nM | 500 to 5000 nM
CC(C)c1ccc(C2CC2c2ccc(S(N)(=O)=O)cc2)nn1 (racemic) [Example B2, 4-{trans-2-[6-(Propan-2-yl)pyridazin-3-yl]cyclopropyl}benzenesulfonamide] | 8800 nM | 5000 to 50000 nM
CC(C)c1cncc(C2CC2c2ccc(S(N)(=O)=O)cc2)n1 (racemic) [Example B3, 4-{trans-2-[6-(Propan-2-yl)pyrazin-2-yl]cyclopropyl}benzenesulfonamide] | – | 500 to 5000 nM
CC(C)c1cnc(C2CC2c2ccc(S(N)(=O)=O)cc2)nc1 (racemic) [Example C2, 4-{trans-2-[5-(Propan-2-yl)pyrimidin-2-yl]cyclopropyl}benzenesulfonamide] | – | 500 to 5000 nM
CC(C)c1ccnc(C2CC2c2ccc(S(N)(=O)=O)cc2)n1 (racemic) [Example C3, 4-{trans-2-[4-(Propan-2-yl)pyrimidin-2-yl]cyclopropyl}benzenesulfonamide] | 1800 nM | 500 to 5000 nM
CN(C)c1nccc(C2CC2c2ccc(S(N)(=O)=O)cc2)n1 (racemic) [Example D1, 4-{trans-2-[2-(Dimethylamino)pyrimidin-4-yl]cyclopropyl}benzenesulfonamide] | 2900 nM | 500 to 5000 nM
NS(=O)(=O)c1ccc(C2CC2c2ccnc(-c3ccccc3)n2)cc1 (racemic) [Example D9, 4-[trans-2-(2-Phenylpyrimidin-4-yl)cyclopropyl]benzenesulfonamide] | – | 500 to 5000 nM
NS(=O)(=O)c1ccc(C2CC2c2ccnc(NCCc3ccccc3)n2)cc1 (racemic) [Example D10, 4-(trans-2-{2-[(2-Phenylethyl)amino]pyrimidin-4-yl}cyclopropyl)benzenesulfonamide] | 1100 nM | 500 to 5000 nM
NS(=O)(=O)c1ccc(C2CC2c2ccnc(Nc3ccccc3)n2)cc1 (racemic) [Example D11, 4-{trans-2-[2-(Phenylamino)pyrimidin-4-yl]cyclopropyl}benzenesulfonamide] | 3300 nM | 500 to 5000 nM
CC(C)c1cc(C2CC2c2ccc(S(N)(=O)=O)cc2)ccn1 (racemic) [Example E1, 4-{trans-2-[2-(Propan-2-yl)pyridin-4-yl]cyclopropyl}benzenesulfonamide] | – | 500 to 5000 nM
NS(=O)(=O)c1ccc([C@@H]2C[C@H]2c2ccnc(C3CCC3)c2)cc1 (racemic) [Example E3, 4-[trans-2-(2-Cyclobutylpyridin-4-yl)cyclopropyl]benzenesulfonamide] | 500 nM | 100 to 500 nM
NS(=O)(=O)c1ccc([C@@H]2C[C@H]2c2ccc(-n3ccnc3)cc2)cc1 (racemic) [Example F1, 4-{trans-2-[4-(1H-Imidazol-1-yl)phenyl]cyclopropyl}benzenesulfonamide] | 3700 nM | 500 to 5000 nM
NS(=O)(=O)c1ccc(C2CC2c2cccc(-n3cncn3)c2)cc1 (racemic) [Example F2, 4-{trans-2-[3-(1H-1,2,4-Triazol-1-yl)phenyl]cyclopropyl}benzenesulfonamide] | 5200 nM | 5000 to 50000 nM
CC(C)c1ccc(C2CC2c2ccc(S(N)(=O)=O)cc2)cn1 (racemic) [Example G1, 4{-trans-2-[6-(Propan-2-yl)pyridin-3-yl]cyclopropyl}benzenesulfonamide] | – | 500 to 5000 nM
NS(=O)(=O)c1ccc(C2CC2c2cncc(N3CCCC3)c2)cc1 (racemic) [Example G2, 4-{trans-2-[5-(Pyrrolidin-1-yl)pyridin-3-yl]cyclopropyl}benzenesulfonamide] | 3200 nM | 500 to 5000 nM
NS(=O)(=O)c1ccc([C@@H]2C[C@H]2c2ccc(-n3cccn3)nc2)cc1 (racemic) [Example G3, 4-{trans-2-[6-(1H-Pyrazol-1-yl)pyridin-3-yl]cyclopropyl}benzenesulfonamide] | 870 nM | 500 to 5000 nM
CC(C)Oc1ccc(C2CC2c2ccc(S(N)(=O)=O)cc2)cn1 (racemic) [Example G4, 4-{trans-2-[6-(Propan-2-yloxy)pyridin-3-yl]cyclopropyl}benzenesulfonamide] | 1000 nM | 500 to 5000 nM
